Experimental data taken from patent US5919756A, “Amides” (Eli Lilly and Company, priority 1997, dated 1999).
Converted amounts (≈) assume the structure as drawn.

Tests used:
Assay type in all cases: cell-based
[1] = test system: Enterococcus, Resistant (4-6 isolates); assay: Enterococcus screen, broth micro-dilution MIC, resistant isolates; set-up: unit not given here; conditions: mean of 4-6 isolates
Protocol: (§1) The antibacterial efficacy of the present compounds is illustrated in TABLE 2. The minimal inhibitory concentrations (MICs) were determined using a standard broth micro-dilution assay.

[2] = test system: Enterococcus, Sensitive (4-6 isolates); assay: Enterococcus screen, broth micro-dilution MIC, sensitive isolates; set-up: unit not given here; conditions: mean of 4-6 isolates
Protocol: as §1

[3] = test system: Staphylococcus aureus 446; assay: Broth micro-dilution MIC, SA 446; conditions: unit assumed
Protocol: as §1

[4] = test system: Staphylococcus aureus 489; assay: Broth micro-dilution MIC, SA 489; conditions: unit assumed
Protocol: as §1

[5] = test system: Staphylococcus aureus 447; assay: Broth micro-dilution MIC, SA 447; conditions: unit assumed
Protocol: as §1

[6] = test system: Staphylococcus haemolyticus 105; assay: Broth micro-dilution MIC, SH 105; conditions: unit assumed
Protocol: as §1

[7] = test system: Staphylococcus haemolyticus 415; assay: Broth micro-dilution MIC, SH 415; conditions: unit assumed
Protocol: as §1

[8] = test system: Staphylococcus epidermis 270; assay: Broth micro-dilution MIC, SE 270; conditions: unit assumed
Protocol: as §1

[9] = test system: Streptococcus pneumoniae P1; assay: Broth micro-dilution MIC, S PN P1; conditions: unit assumed
Protocol: as §1

[10] = test system: Streptococcus pyogenes 203; assay: Broth micro-dilution MIC, S PY 203; conditions: unit assumed
Protocol: as §1

Row | Molecule | Minimum Inhibitory Concentrations (MICs), Mean Values of 4-6 Isolates, Resistant [1] | Minimum Inhibitory Concentrations (MICs), Mean Values of 4-6 Isolates, Sensitive [2] | MIC, SA 446 [3] | MIC, SA 489 [4] | MIC, SA 447 [5] | MIC, SH105 [6] | MIC, SH415 [7] | MIC, SE270 [8] | MIC, S PN P1 [9] | MIC, S PY 203 [10]
1 | N^4 -(4-phenoxybenzyl)A82846B, phenethylamide, trifluoroacetate salt [Example 14] | 2 | 0.01 | 2 µg/mL | 1 µg/mL | 2 µg/mL | 0.5 µg/mL | 2 µg/mL | 1 µg/mL | ≤ 0.06 µg/mL | ≤ 0.06 µg/mL
2 | N^4 -(4-(4-CHLOROPHENYL)BENZYL)A82846B, 5-(TERT-BUTOXYCARBONYLAMINO)PENTYLAMIDE, TRIS(TRIFLUOROACETATE) SALT [Example 25] | 2.8 | 5.0 | – | – | – | – | – | – | – | –
3 | N^4 -(4-PHENOXYBENZYL)A82846B, 3-(DIMETHYLAMINO)PROPYLAMIDE, TRIFLUOROACETATE SALT [Example 1] | 1.4 | 0.13 | 4 µg/mL | 2 µg/mL | 1 µg/mL | 2 µg/mL | 2 µg/mL | 0.25 µg/mL | ≤ 0.125 µg/mL | ≤ 0.06 µg/mL
4 | CNC(CC(C)C)C(=O)NC1C(=O)NC(CC(N)=O)C(=O)NC2C(=O)NC3C(=O)NC(C(=O)NC(C(=O)NCCc4ccccc4)c4cc(O)cc(O)c4-c4cc3ccc4O)C(OC3CC(C)(N)C(O)C(C)O3)c3ccc(c(Cl)c3)Oc3cc2cc(c3OC2OC(CO)C(O)C(O)C2OC2CC(C)(NCc3ccc(-c4ccccc4)cc3)C(O)C(C)O2)Oc2ccc(cc2Cl)C1O.Cl (stereo not drawn) [Example 18, N^4-(4-phenylbenzyl)A82846B, phenethylamide, HCl salt] | 0.84 | 0.19 | 1 µg/mL | 2 µg/mL | 1 µg/mL | 2 µg/mL | 2 µg/mL | 1 µg/mL | ≤ 0.06 µg/mL | ≤ 0.06 µg/mL
5 | CNC(CC(C)C)C(=O)NC1C(=O)NC(CC(N)=O)C(=O)NC2C(=O)NC3C(=O)NC(C(=O)NC(C(=O)NCCCOC)c4cc(O)cc(O)c4-c4cc3ccc4O)C(OC3CC(C)(N)C(O)C(C)O3)c3ccc(c(Cl)c3)Oc3cc2cc(c3OC2OC(CO)C(O)C(O)C2OC2CC(C)(NCc3ccc(-c4ccccc4)cc3)C(O)C(C)O2)Oc2ccc(cc2Cl)C1O (stereo not drawn) [Example 13, N^4-(4-phenylbenzyl)A82846B, (3-methoxypropyl)amide] | 1.4 | 0.072 | 1 µg/mL (≈ 0.547 µM) | 1 µg/mL (≈ 0.547 µM) | 1 µg/mL (≈ 0.547 µM) | 2 µg/mL (≈ 1.09 µM) | 0.5 µg/mL (≈ 0.273 µM) | 1 µg/mL (≈ 0.547 µM) | ≤ 0.06 µg/mL | ≤ 0.06 µg/mL
6 | CNC(CC(C)C)C(=O)NC1C(=O)NC(CC(N)=O)C(=O)NC2C(=O)NC3C(=O)NC(C(=O)NC(C(=O)NCc4ccccc4)c4cc(O)cc(O)c4-c4cc3ccc4O)C(OC3CC(C)(N)C(O)C(C)O3)c3ccc(c(Cl)c3)Oc3cc2cc(c3OC2OC(CO)C(O)C(O)C2OC2CC(C)(N)C(O)C(C)O2)Oc2ccc(cc2Cl)C1O.O=C(O)C(F)(F)F (stereo not drawn) [Example 24, A82846B, benzylamide, trifluoroacetate salt] | > 128 | 0.38 | ≤ 0.06 µg/mL | ≤ 0.06 µg/mL | ≤ 0.06 µg/mL | ≤ 0.06 µg/mL | ≤ 0.06 µg/mL | ≤ 0.06 µg/mL | ≤ 0.06 µg/mL | ≤ 0.06 µg/mL
7 | CCCCc1ccc(CNC2(C)CC(OC3C(Oc4c5cc6cc4Oc4ccc(cc4Cl)C(OC4CC(C)(N)C(O)C(C)O4)C4NC(=O)C(NC(=O)C6NC(=O)C(CC(N)=O)NC(=O)C(NC(=O)C(CC(C)C)NC)C(O)c6ccc(c(Cl)c6)O5)c5ccc(O)c(c5)-c5c(O)cc(O)cc5C(C(=O)NCCc5ccccc5)NC4=O)OC(CO)C(O)C3O)OC(C)C2O)cc1.O=C(O)C(F)(F)F (stereo not drawn) [Example 15, N^4-(4-n-butylbenzyl)A82846B, phenethylamide, trifluoroacetate salt] | 1.7 | 0.22 | 2 µg/mL | 2 µg/mL | 2 µg/mL | 1 µg/mL | 2 µg/mL | 2 µg/mL | ≤ 0.06 µg/mL | ≤ 0.06 µg/mL
8 | CNC(CC(C)C)C(=O)NC1C(=O)NC(CC(N)=O)C(=O)NC2C(=O)NC3C(=O)NC(C(=O)NC(C(=O)NCc4ccccc4)c4cc(O)cc(O)c4-c4cc3ccc4O)C(OC3CC(C)(N)C(O)C(C)O3)c3ccc(c(Cl)c3)Oc3cc2cc(c3OC2OC(CO)C(O)C(O)C2OC2CC(C)(NCc3ccc(-c4ccccc4)cc3)C(O)C(C)O2)Oc2ccc(cc2Cl)C1O.Cl (stereo not drawn) [Example 11, N^4-(4-phenylbenzyl)A82846B, benzylamide, HCl salt] | 1 | 0.11 | 4 µg/mL | 1 µg/mL | 1 µg/mL | 1 µg/mL | 1 µg/mL | 1 µg/mL | ≤ 0.06 µg/mL | ≤ 0.06 µg/mL
9 | N^4 -(4-phenoxybenzyl)A82846B, n-octylamide, trifluoroacetate salt [Example 6] | 1.7 | 0.44 | 4 µg/mL | 2 µg/mL | 1 µg/mL | 1 µg/mL | 4 µg/mL | 1 µg/mL | – | ≤ 0.06 µg/mL
10 | N^4 -(4-phenylbenzyl)A82846B, (4-cyclohexylphenyl) amide, trifluoroacetate salt [Example 8] | 6.7 | 0.33 | 2 µg/mL | 4 µg/mL | 2 µg/mL | 4 µg/mL | 4 µg/mL | 2 µg/mL | ≤ 0.06 µg/mL | ≤ 0.06 µg/mL
11 | CNC(CC(C)C)C(=O)NC1C(=O)NC(CC(N)=O)C(=O)NC2C(=O)NC3C(=O)NC(C(=O)NC(C(=O)NCCc4ccccc4)c4cc(O)cc(O)c4-c4cc3ccc4O)C(OC3CC(C)(N)C(O)C(C)O3)c3ccc(c(Cl)c3)Oc3cc2cc(c3OC2OC(CO)C(O)C(O)C2OC2CC(C)(N)C(O)C(C)O2)Oc2ccc(cc2Cl)C1O.O=C(O)C(F)(F)F (stereo not drawn) [Example 16, A82846B, phenethylamide, trifluoroacetate salt] | 16 | 0.25 | 0.125 µg/mL | ≤ 0.06 µg/mL | ≤ 0.06 µg/mL | ≤ 0.06 µg/mL | 0.125 µg/mL | ≤ 0.06 µg/mL | ≤ 0.06 µg/mL | –
12 | N^4 -(4-phenoxybenzyl)A82846B, tert-butylamide, trifluoroacetate salt [Example 5] | 4 | 0.22 | 8 µg/mL | 2 µg/mL | 2 µg/mL | 4 µg/mL | 2 µg/mL | 4 µg/mL | – | ≤ 0.06 µg/mL
13 | N^4 -(4-phenylbenzyl)A82846B, tert-butylamide, trifluoroacetate salt [Example 4] | 2 | 0.082 | 2 µg/mL | – | 0.5 µg/mL | 1 µg/mL | 2 µg/mL | 0.125 µg/mL | ≤ 0.06 µg/mL | ≤ 0.06 µg/mL
14 | CNC(CC(C)C)C(=O)NC1C(=O)NC(CC(N)=O)C(=O)NC2C(=O)NC3C(=O)NC(C(=O)NC(C(=O)NCCc4ccccc4)c4cc(O)cc(O)c4-c4cc3ccc4O)C(OC3CC(C)(N)C(O)C(C)O3)c3ccc(c(Cl)c3)Oc3cc2cc(c3OC2OC(CO)C(O)C(O)C2OC2CC(C)(NCc3ccc(-c4ccccc4)cc3)C(O)C(C)O2)Oc2ccc(cc2Cl)C1O (stereo not drawn) [Example 17, N^4-(4-phenylbenzyl)A82846B, phenethylamide] | 1.4 | 0.25 | – | – | – | – | – | – | – | –
15 | N^4 -(4-(4-CHLOROPHENYL)BENZYL)A82846B, 5-AMINOPENTYLAMIDE, TETRA(TRIFLUOROACETATE) SALT [Example 26] | 1.7 | 0.44 | – | 2 µg/mL | 1 µg/mL | 0.5 µg/mL | 2 µg/mL | 1 µg/mL | 0.25 µg/mL | 0.25 µg/mL
